These compounds were tested on brain myelination (myelin water fraction) (assay: Cross-sectional correlation analysis (GLM) of infant formula nutrient composition against brain myelination, measured as MWF by mcDESPOT MRI). Details: children up to 5 years fed different infant formulas during infancy; voxel-wise correlations, p<0.05 corrected.
Type: in vivo, human
Protocol: MRI brain scans of infants and children between 0 and 5 years were acquired using a white matter imaging technique. This technique provides a quantitative measure, the Myelin Water Fraction (MWF), which is a surrogate marker of myelin content. When mapped as a function of time across early childhood, myelination trajectories can be generated.
Infant formula composition: six infant formulas fed to infants participating in study were analyzed for their composition/level of myelin-relevant nutrients.
Infants included in this study were drawn from a larger longitudinal study of normal brain and behavioral development: the Brown university Assessment of Myelination and Behavior Across Maturation (BAMBAM). To focus on neurotypical development, children with known potential risk factors for learning, neurologic, or psychiatric disorders were specifically excluded during recruitment and enrollment. Thus, children with in utero alcohol or illicit substance exposure, premature (<37 weeks gestation) or multiple birth, fetal ultrasound abnormalities, complicated pregnancy (e.g., preeclampsia), APGAR scores <8, NICU admission, neurological disorder (e.g., head injury, epilepsy), psychiatric or developmental disorders in the infant, parents or siblings (including maternal depression requiring medication) were excluded. Ongoing screenings, such as the MCAT for autism, or CBCL for behavioral problems, were further used to remove enrolled children with clinically concerning behaviors or overt medical conditions (such as autism spectrum disorders).
A combination of retrospective and prospective data were acquired from parents via detailed medical histories and parental interview on type of infant formula used, percentage of breastfeeding to formula feeding, and length of exclusive breastfeeding. This information was updated at each study visit, which occurred approximately every 6 months for children under 2 years, and yearly for older children. Using this information, children were categorized into one of 2 groups: #1. Exclusively formula-fed; and #2. Exclusively breastfed for at least 90 days (3 months). Children who were fed a combination of breastmilk and formula within 3 months were excluded from our analysis. Infants within the exclusively formula-fed group were further sub-divided based on parental reports of the main infant formula used throughout the first 3 months. Main formula was defined as that given 90% of the time or more (in the case were parents used an alternate brand during vacation, for example).
Using these criteria, 94 exclusively formula-fed infants and young children were selected into group #1. These included 13 children who received formula #2; 28 who received formula #5; 8 who received formula #3; 39 who received formula #4; 5 who received formula #1 and 1 who received formula #6. A sample of 52 exclusively breast-fed infants were also selected and matched to the over formula-fed group with regards to mean age, gestation duration, birth weight, male:female ratio, ethnicity ratio, maternal education, family size, and number of languages spoken in the home (in addition to English).
Each infant was scanned using the mcDESPOT (multicomponent Driven Equilibrium Single Pulse Observation of T1 and T2) white matter imaging technique Deoni et al. (Magn. Reson. Med. 2008, 60:1372-1387), which provides a quantitative measure of the myelin water fraction (MWF) at each imaging point throughout the brain. All infants were scanned during natural (i.e. non-sedated) sleep using acoustically-muffled mcDESPOT imaging protocols. Total imaging times ranged from 19 minutes for the youngest toddlers to 24 minutes for the older 4 year-old children.
All data were acquired on a Siemens 3T Tim Trio scanner equipped with a 12 channel head RF array.
In the case of [Ca] [Calcium], the “nutritional drivers for myelination (final general linear model)” value (shortened to “nutritional drivers for myelination”) was “identified drivers”.
With C[N+](C)(C)CCO [Choline] the “nutritional drivers for myelination” value was “identified drivers”.
In the case of Zinc, the “nutritional drivers for myelination” value was “identified drivers”.
In the case of Iron, the “nutritional drivers for myelination” value was “identified drivers”.
For [Mg] [Magnesium], the “nutritional drivers for myelination” value was “identified drivers”.
For [P] [Phosphorus], the “nutritional drivers for myelination” value was “identified drivers”.
In the case of sphingomyelin, the “nutritional drivers for myelination” value was “identified drivers”.
In the case of Vitamin B12, the “nutritional drivers for myelination” value was “identified drivers”.

Same assay, conditions: children up to 5 years fed different infant formulas; in particular in the visual cortex
In the case of CCCCC/C=C\C/C=C\C/C=C\C/C=C\CCCC(=O)O [ARA, arachidonic acid], the “association with myelination (myelin water fraction) over time in the brain” value was “significant association with myelination”.

— US20180360090A1, “NUTRITIONAL COMPOSITIONS AND INFANT FORMULAS TO PROMOTE MYELINATION IN THE BRAIN” (NESTEC S.A., priority 2015, published 2018)
